pKi: −log10 of the molar value. Structures can show the parent of a compound that is named as a salt.
Tests used:
[1] = tested on: maximal electroshock-induced seizures (MES); assay: Maximum electroshock seizure test (MES), oral administration to mice; format: in vivo; details: Mus musculus, po, 30 minutes before the test, dose protecting 50% of animals
Description: The compounds of the present invention may be tested for in vivo anticonvulsant activity after i.v., p.o. or i.p. injection using a number of anticonvulsant tests in mice, including the maximum electroshock seizure test (MES). Maximum electroshock seizures were induced in male NSA mice weighing between 15-20 g and male Sprague-Dawley rats weighing between 200-225 g by application of current (50 mA, 60 pulses/sec, 0.8 msec pulse width, 1 sec duration, D.C., mice; 99 mA, 125 pulses/sec, 0.8 msec pulse width, 2 sec duration, D.C., rats) using a Ugo Basile ECT device (Model 7801). Mice were restrained by gripping the loose skin on their dorsal surface and saline-coated corneal electrodes were held lightly against the two corneae. Rats were allowed free movement on the bench top and ear-clip electrodes were used. […] A tonic seizure was defined as a hindlimb extension in excess of 90 degrees from the plane of the body. Results were treated in a quantal manner.
The ability of 3-[4-(2,4-difluorophenoxy)phenyl]-1H-pyrazole-1-carboxamide to block maximal electroshock-induced seizures (MES) was determined as described earlier.
3-[4-(2,4-Difluorophenoxy)phenyl]-1H-pyrazole-1-carboxamide was administered p.o. to mice 30 minutes before the test procedure.
The following compounds in Table 1 were tested in MES as described for 3-[4-(2,4-difluorophenoxy)phenyl]-1H-pyrazole-1-carboxamide: […]

[2] = target: rBIIA isoform of Na+ channels (Rattus norvegicus, UniProt P04775); assay: Electrophysiological Assay 2: whole-cell patch-clamp of Na+ currents in HEK-293 cells expressing rBIIA; format: cell-based; details: HEK-293 cells stably expressing rBIIA; concentration that produces half maximal inhibition
Description: Cell preparation: HEK-293 (NaIIA-B2) cell line stably expressing the rBIIA isoform of Na^+ channels was established in-house. The cells were cultured using standard techniques, as described previously (Verdoorn, T. A, et al., Neuron 4:919-928 (1990)). For electrophysiology, cells were plated onto poly-D-lysine pre-coated Cellware 35 mm Petri dishes (BIOCOAT, Becton Dickinson) at a density of ˜10^4 cells/dish on the day of re-seeding from confluent cultures. Our experience has been that cells are suitable for recordings for 2-3 days after plating.
Patch-clamp recordings of voltage-sensitive Na^+ currents. Whole-cell voltage-clamp recordings were made using conventional patch-clamp techniques (Hamill et al., Pfluegers Arch. 391:85-100 (1981)) with an Axopatch 200A amplifier (Axon Instruments, Foster City, Calif.). The recording chamber was continuously superfused with the external solution (150 mM NaCl, 5.4 mM KCl, 1.8 mM CaCl2, 1 mM MgCl2, 10 mM HEPES, 10 mM glucose, pH7.4 adjusted with NaOH, osmolality ˜320 mmol/kg) at a speed of about 1 mL/min. Recording pipettes were pulled from the thick-walled capillaries (WPI, Sarasota, Fla.) and fire-polished. The pipette resistances ranged from 1 to 3 MΩ when the pipettes were filled with internal solution containing (in mM): 130 CsF, 20 NaCl, 2 MgCl2, 10 EGTA, 10 HEPES, pH adjusted to 7.4 with CsOH, osmolality ˜310 mmol/kg. Drugs and intervening wash-outs were applied through a linear array of flow pipes (Drummond Microcaps, 2 μL, 64-mm length). Compounds are dissolved in dimethylsulfoxide (DMSO) to make a 30 mM stock solution, which was subsequently diluted into the external solution to give final concentrations of 0.1-100 μM. At the highest (1%) concentration, DMSO inhibited the size of Na^+ current only slightly. Currents were recorded at room temperature (22-25° C.), filtered at 3 kHz with an active 8-pole Bessel filter (Frequency Devices, Haverhill, Mass.), digitized at 10-50 μs intervals, and stored using Digidata 1200 analog/digital interface with Pclamp6/Clampex software (Axon Instruments). Series resistance was cancelled typically by ˜75% when necessary.
The following voltage pulse protocols were used to assess the potency and kinetics of inhibition of the Na^+ channels by the compounds (FIG. 1). [drawing 33]
FIG. 1. Voltage pulse protocols. A. IV-curves. C. Steady-state inactivation. B. Repriming kinetics. D. Time course of binding.
Current-voltage relationship (IV-curve), protocol A, was used to report the voltage at which the maximal inward Na^+ current is achieved. This voltage was used throughout the experiment as testing voltage, Vt. The steady-state inactivation (or, availability) curve, protocol C, was used to get the voltage at which almost complete (≧95%) inactivation of Na^+ channels occurs; it served as voltage for conditioning prepulse, Vc, throughout the experiment. Protocol B reports how fast the channels recover from inactivation at hyperpolarized voltages. This permitted us to set up the duration of the hyperpolarization gap which is used in measurement of the kinetics of binding of compounds to inactivated Na^+ channels (protocol D). Channel repriming under control conditions was fast (≧90% recovery during first 5-10 ms). If a drug substantially retards the repriming process then it becomes possible (protocol D) to accurately measure the kinetics of binding of the inhibitor to inactivated channels as well as the steady-state affinity (k+ and Ki). To estimate k+ values the reduction in peak currents in successive trials with varying pre-pulse duration was plotted as a function of pre-pulse duration and the time constant (τ) measured by mono-exponential fit. A plot of 1/τ as a function of antagonist concentration then allowed calculating of the macroscopic binding rates of the antagonists. To determine Ki values the partial inhibition curves measured by fractional responses in steady-state were fitted with the logistic equation: […]

[3] = target: T1, hSkM1 isoform of Na+ channels (Homo sapiens, UniProt P35499); assay: Electrophysiological Assay 1: whole-cell patch-clamp of Na+ currents in HEK-293 cells expressing hSkM1; format: cell-based; details: HEK-293 cells stably expressing hSkM1; concentration that produces half maximal inhibition
T1 construct: expressed in transfected cells
Description: Cell preparation: HEK-293 cells stably expressing the hSkM1 isoform of Na^+ channels (generous gift from Dr. A. L. George, Vanderbilt University Medical School) were cultured using standard techniques, as described previously (Verdoorn, T. A, et al., Neuron 4:919-928 (1990)). For electrophysiology, cells were plated onto 35 mm Petri dishes (pre-coated with poly-D-lysine) at a density of 1:40 on the day of re-seeding from confluent cultures. Our experience has been that cells are suitable for recordings for 2-3 days after plating.
Patch-clamp recordings of voltage-sensitive Na^+ currents: Whole-cell voltage-clamp recordings were made using conventional patch-clamp techniques (Hamill et al., Pfluegers Arch. 391:85-100 (1981)) with an Axopatch 200A amplifier (Axon Instruments, Foster City, Calif.). […] The recording chamber was continuously superfused with the external solution (150 mM NaCl, 5.4 mM KCl, 1.8 mM CaCl2, 1 mM MgCl2, 10 mM HEPES, 10 mM glucose, pH 7.4 (NaOH)) at a speed of about 1 mL/min. Recording pipettes were pulled from thick-walled capillaries (WPI, Sarasota, Fla.) and fire-polished. The pipette resistances ranged from 1 to 3 MΩ when the pipettes were filled with internal solution containing (in mM): 110 CsF, 10 NaCl, 5 MgCl2, 11 EGTA, 10 HEPES, pH adjusted to 7.4 with CsOH. Osmolality was set with a difference of 15-20 mmol/kg between external and internal solutions (lower inside the cell). Drugs and intervening wash-outs were applied through a linear array of flow pipes (Drummond Microcaps, 2 μL, 64-mm length). Compounds are dissolved in dimethylsulfoxide (DMSO) to make a 30 mM stock solution, which was subsequently diluted into the external solution to give final concentrations of 0.1-100 μM. At the highest (1%) concentration, DMSO inhibited the size of Na^+ current only slightly. Currents were recorded at room temperature (22-25° C.), filtered at 5 kHz with an active 8-pole Bessel filter (Frequency Devices, Haverhill, Mass.), digitized at 10-50 μs intervals, and stored using Digidata 1200 analog/digital interface with Pclamp6/Clampex software (Axon Instruments). Series resistance was cancelled typically by ˜75% when necessary. The inhibitory potency of drugs was assessed by measuring reductions in the peak amplitude of Na^+ currents induced by increasing concentrations of compounds tested. Na^+ currents were elicited by stepping membrane voltage from holding potentials over the range −100 mV to −50 mV, to a pulse potential of −10 mV. The test pulse duration was 5-10 msec, repeated at a frequency≦1 Hz. Concentration-inhibition curves were fitted with equation 1:
I/Icontrol=1/(1+([compound]/IC50)) Eq. 1
where Icontrol is the maximal Na^+ current in the absence of antagonist, [compound] is the drug concentration, and IC50 is the concentration of compound that produces half maximal inhibition.
The apparent antagonist dissociation constant (Kd) of this compound for inactivated sodium channels is ˜8 nM.
The Ki (the concentration of a compound that produces half maximal inhibition) value for 3-[4-(4-fluorophenoxy)phenyl]-1H-pyrazole-1-carboxamide and other tested compounds are presented in Table 2.

T1 sequence (P35499 whole entry, canonical isoform): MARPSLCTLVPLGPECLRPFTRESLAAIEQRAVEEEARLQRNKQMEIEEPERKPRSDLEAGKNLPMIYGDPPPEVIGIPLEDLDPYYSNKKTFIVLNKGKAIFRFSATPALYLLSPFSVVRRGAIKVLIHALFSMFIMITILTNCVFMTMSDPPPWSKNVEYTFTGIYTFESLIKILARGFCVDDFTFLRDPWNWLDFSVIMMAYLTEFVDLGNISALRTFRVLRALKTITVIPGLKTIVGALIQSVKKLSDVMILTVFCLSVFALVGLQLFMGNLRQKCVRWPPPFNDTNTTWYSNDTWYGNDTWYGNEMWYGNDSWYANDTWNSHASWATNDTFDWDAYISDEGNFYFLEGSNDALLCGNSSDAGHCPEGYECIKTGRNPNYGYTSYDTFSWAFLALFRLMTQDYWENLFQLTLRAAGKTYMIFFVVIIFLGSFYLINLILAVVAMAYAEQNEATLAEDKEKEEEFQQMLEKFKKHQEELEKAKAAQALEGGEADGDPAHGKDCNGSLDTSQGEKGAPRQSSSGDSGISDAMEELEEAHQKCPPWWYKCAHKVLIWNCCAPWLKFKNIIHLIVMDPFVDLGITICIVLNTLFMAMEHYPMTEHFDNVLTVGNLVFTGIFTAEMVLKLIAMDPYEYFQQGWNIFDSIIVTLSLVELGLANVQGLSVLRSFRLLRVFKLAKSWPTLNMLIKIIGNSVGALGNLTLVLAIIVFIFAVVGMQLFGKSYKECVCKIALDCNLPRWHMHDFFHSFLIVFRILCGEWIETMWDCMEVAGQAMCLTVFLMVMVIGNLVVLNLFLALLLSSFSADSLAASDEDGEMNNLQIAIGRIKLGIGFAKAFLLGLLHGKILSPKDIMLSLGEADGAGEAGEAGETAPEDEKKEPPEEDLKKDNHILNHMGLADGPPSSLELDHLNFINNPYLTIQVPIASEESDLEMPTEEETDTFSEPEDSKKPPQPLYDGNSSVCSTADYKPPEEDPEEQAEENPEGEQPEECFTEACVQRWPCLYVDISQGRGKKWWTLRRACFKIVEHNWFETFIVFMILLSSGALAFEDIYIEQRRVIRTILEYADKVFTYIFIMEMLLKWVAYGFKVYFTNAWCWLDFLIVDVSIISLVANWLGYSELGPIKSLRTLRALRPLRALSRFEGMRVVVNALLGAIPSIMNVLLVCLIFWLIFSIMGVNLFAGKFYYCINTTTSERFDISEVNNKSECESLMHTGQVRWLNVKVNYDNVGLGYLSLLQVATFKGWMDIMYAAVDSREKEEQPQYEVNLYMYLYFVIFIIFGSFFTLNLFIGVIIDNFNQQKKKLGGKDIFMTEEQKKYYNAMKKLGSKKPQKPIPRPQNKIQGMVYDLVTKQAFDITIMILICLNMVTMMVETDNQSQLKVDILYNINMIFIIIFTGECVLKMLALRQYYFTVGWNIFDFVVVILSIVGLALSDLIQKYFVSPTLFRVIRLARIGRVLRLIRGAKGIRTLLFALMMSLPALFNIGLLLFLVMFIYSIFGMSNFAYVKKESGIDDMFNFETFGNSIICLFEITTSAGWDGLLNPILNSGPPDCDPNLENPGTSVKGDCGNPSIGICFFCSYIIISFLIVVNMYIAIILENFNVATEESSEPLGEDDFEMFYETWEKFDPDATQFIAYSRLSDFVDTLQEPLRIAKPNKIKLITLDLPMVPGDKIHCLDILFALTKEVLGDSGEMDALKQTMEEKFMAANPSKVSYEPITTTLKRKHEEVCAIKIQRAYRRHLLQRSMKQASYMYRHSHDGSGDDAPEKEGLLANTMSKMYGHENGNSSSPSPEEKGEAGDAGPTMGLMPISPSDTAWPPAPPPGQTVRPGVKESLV

SMILES | melting point [°C] | ED50 [1] [mg/kg] | pKi [2] | pKi [3]
Fc1ccc(Oc2ccc(-c3c[nH]cn3)cc2)c(F)c1 (as salt: hydrochloride) [4-[4-(2,4-Difluorophenoxy)phenyl]-1H-imidazole] | 192 to 195 | – | – | –
O=C(Cn1nccc1-c1ccc(Oc2ccc(F)cc2)cc1)N1CCOCC1 [1-Morpholin-4-yl-2-{5-[4-(4-fluorophenoxy)phenyl]-pyrazol-1-yl}-ethanone] | 122 to 124 | 4.4 | – | –
Fc1ccc(Oc2ccc(-c3ccn(-c4ncccn4)n3)cc2)cc1 [2-{3-[4-(4-Fluorophenoxy)phenyl]-pyrazol-1-yl}-pyrimidine] | – | 4.7 | 6.38 | –
NC(=O)Cn1nccc1-c1ccc(Oc2ccc(F)cc2)cc1 [2-{5-[4-(4-Fluorophenoxy)phenyl]-pyrazol-1-yl}-acetamide] | – | 2.6 | 5.81 | –
NC(=O)n1ccc(-c2ccc(Oc3ccc(Cl)cc3F)cc2)n1 [3-[4-(4-Chloro-2-fluorophenoxy)phenyl]-1H-pyrazole-1-carhoxamide] | 150 to 151 | 3.1 | – | 8.52
NC(=O)n1ccc(-c2ccc(Oc3ccc(C(F)(F)F)cc3)cc2)n1 [3-[4-(4-Trifluoromethylphenoxy)phenyl]-1H-pyrazole-1-carboxamide] | 131 to 132 | 3.9 | – | –
Cl.FC(F)(F)c1ccc(Oc2ccc(-c3c[nH]cn3)cc2)cc1 [4-(4-(4-Trifluoromethylphenoxy)phenyl]-1H-imidazole, hydrochloride salt] | 230 to 232 | 7.7 | – | –
Fc1ccc(Oc2ccc(-c3c[nH]cn3)cc2)c(F)c1 [4-[4-(2,4-Difluorophenoxy)phenyl]-1H-imidazole] | 144 to 148 | – | 5.99 | –
Cl.Fc1cc(Cl)ccc1Oc1ccc(-c2c[nH]cn2)cc1 [4-[4-(4-Chloro-2-fluorophenoxy)phenyl]-1H-imidazole, hydrochloride salt] | 216 to 220 | 10 | 6.92 | –
CSc1cc(-c2ccc(Oc3ccccc3)cc2)nn1C(N)=O [5-Methylthio-3-(4-phenoxyphenyl)-1H-pyrazole-1-carboxamide] | 142 to 144 | – | – | 7.10

Source: patent publication US6737418B2, “Aryl substituted pyrazoles, imidazoles, oxazoles, thiazoles and pyrroles, and the use thereof” (Euro-Celtique S.A., priority 1999, dated 2004)
